Assay results as given in paper PMC4774911, “Biochemical Screening of Five Protein Kinases from Plasmodium falciparum against 14,000 Cell-Active Compounds” (PLoS ONE, 2016).
“And” between values parts separate entries of the source, which are not always exact repeats. Equal entries are not always repeated.

Tests used:
Experiment in all cases: biochemical
MAP3K11 = MAP3K11 (Homo sapiens, UniProt Q16584)
MAP3K5 = MAP3K5 (Homo sapiens, UniProt Q99683)
MARK4 = target: T1, MARK4 (Homo sapiens, UniProt Q96L34)
T1 sequence (Q96L34 1-752): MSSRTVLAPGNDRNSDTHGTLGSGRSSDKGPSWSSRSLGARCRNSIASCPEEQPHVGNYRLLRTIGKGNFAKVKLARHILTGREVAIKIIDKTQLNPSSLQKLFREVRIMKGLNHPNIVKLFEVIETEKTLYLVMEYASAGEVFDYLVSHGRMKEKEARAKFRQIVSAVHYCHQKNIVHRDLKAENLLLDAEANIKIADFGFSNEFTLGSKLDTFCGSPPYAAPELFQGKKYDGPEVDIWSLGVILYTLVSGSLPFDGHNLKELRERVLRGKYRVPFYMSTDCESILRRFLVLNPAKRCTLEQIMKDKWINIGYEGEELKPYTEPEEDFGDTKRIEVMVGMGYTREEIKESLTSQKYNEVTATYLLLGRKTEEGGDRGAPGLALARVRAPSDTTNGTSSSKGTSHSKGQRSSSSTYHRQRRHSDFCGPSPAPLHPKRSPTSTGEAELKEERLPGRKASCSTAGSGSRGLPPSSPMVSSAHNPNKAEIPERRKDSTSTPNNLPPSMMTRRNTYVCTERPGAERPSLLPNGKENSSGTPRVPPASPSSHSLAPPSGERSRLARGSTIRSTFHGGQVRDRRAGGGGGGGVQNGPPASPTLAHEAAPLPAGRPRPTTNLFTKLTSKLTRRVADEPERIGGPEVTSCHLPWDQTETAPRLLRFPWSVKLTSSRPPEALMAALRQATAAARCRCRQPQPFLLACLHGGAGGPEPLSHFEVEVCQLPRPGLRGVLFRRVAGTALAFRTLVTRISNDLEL

NLK = target: T2, NLK (Homo sapiens, UniProt Q9UBE8)
T2 sequence (Q9UBE8 1-527): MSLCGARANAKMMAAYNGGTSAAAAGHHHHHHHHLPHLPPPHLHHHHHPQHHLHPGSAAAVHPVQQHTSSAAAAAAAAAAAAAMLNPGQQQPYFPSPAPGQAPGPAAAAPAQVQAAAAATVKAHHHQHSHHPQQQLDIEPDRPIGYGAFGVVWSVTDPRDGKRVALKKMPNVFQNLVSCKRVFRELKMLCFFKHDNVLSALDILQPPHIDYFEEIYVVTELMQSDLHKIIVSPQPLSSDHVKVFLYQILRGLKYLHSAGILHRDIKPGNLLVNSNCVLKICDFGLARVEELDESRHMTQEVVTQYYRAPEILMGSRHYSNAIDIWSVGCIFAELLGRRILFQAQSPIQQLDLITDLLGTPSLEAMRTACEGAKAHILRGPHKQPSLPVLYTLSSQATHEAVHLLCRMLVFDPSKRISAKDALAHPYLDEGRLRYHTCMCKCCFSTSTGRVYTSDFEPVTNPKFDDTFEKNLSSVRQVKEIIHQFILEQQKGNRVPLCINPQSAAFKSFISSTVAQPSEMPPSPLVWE

CAMK2A = CAMK2A (Homo sapiens, UniProt Q9UQM7)
MKNK1 = MKNK1 (Homo sapiens, UniProt Q9BUB5)
CHEK1 = target: T3, CHEK1 (Homo sapiens, UniProt O14757)
T3 sequence (O14757 1-476): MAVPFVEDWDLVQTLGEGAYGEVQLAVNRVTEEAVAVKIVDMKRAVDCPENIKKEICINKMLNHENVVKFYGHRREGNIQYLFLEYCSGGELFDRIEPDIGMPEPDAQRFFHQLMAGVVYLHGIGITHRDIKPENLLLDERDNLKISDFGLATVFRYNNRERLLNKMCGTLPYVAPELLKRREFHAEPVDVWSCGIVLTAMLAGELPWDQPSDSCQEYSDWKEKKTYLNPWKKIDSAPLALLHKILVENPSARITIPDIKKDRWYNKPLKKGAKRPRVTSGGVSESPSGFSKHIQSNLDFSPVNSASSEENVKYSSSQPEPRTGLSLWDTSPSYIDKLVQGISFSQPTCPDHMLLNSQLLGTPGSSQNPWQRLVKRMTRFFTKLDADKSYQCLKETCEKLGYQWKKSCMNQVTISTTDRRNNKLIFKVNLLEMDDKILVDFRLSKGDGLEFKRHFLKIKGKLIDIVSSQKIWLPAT

PIP4K2C = target: T4, PIP4K2C (Homo sapiens, UniProt Q8TBX8)
T4 sequence (Q8TBX8 1-421): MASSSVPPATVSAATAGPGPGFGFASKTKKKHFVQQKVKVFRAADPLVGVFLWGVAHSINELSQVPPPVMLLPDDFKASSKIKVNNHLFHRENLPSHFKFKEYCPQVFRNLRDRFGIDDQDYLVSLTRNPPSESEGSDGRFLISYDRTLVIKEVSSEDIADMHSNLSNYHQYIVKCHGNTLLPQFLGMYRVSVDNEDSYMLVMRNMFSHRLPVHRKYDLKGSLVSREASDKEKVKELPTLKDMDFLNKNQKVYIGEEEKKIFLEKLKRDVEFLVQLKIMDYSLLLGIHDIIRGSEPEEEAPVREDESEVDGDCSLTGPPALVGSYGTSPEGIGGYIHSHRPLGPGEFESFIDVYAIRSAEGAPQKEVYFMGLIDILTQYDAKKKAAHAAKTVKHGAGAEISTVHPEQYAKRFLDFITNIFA

JAK2 = JAK2 (Homo sapiens, UniProt O60674)
JAK2, sequence (O60674 whole entry): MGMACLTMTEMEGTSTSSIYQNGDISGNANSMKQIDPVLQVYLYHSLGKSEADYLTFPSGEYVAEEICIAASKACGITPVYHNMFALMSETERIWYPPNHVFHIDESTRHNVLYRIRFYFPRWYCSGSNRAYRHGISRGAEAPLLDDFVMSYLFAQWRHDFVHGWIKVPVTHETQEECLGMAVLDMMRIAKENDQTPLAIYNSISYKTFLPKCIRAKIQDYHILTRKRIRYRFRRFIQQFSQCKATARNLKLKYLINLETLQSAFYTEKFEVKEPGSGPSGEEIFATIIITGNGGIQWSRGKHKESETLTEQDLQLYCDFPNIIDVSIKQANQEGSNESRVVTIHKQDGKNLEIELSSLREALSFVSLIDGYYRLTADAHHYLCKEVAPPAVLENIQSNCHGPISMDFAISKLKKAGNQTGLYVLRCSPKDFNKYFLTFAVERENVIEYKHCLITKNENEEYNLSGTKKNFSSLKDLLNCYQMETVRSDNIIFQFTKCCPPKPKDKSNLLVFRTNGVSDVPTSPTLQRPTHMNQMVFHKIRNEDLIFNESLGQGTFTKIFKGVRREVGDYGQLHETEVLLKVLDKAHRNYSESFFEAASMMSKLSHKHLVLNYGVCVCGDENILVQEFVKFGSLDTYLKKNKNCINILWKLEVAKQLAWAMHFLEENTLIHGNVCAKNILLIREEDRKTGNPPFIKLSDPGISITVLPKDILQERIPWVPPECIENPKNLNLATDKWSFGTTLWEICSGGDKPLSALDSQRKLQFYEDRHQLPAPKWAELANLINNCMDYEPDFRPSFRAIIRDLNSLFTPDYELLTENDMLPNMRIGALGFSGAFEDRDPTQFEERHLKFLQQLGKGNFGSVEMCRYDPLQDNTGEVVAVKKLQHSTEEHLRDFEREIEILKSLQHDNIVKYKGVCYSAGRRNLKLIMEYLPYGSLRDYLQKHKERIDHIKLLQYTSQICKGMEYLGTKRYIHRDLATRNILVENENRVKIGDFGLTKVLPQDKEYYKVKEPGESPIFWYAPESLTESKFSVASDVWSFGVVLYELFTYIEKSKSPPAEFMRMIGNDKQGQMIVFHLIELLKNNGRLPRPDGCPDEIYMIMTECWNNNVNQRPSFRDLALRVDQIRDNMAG

MAP3K11, sequence (Q16584 whole entry): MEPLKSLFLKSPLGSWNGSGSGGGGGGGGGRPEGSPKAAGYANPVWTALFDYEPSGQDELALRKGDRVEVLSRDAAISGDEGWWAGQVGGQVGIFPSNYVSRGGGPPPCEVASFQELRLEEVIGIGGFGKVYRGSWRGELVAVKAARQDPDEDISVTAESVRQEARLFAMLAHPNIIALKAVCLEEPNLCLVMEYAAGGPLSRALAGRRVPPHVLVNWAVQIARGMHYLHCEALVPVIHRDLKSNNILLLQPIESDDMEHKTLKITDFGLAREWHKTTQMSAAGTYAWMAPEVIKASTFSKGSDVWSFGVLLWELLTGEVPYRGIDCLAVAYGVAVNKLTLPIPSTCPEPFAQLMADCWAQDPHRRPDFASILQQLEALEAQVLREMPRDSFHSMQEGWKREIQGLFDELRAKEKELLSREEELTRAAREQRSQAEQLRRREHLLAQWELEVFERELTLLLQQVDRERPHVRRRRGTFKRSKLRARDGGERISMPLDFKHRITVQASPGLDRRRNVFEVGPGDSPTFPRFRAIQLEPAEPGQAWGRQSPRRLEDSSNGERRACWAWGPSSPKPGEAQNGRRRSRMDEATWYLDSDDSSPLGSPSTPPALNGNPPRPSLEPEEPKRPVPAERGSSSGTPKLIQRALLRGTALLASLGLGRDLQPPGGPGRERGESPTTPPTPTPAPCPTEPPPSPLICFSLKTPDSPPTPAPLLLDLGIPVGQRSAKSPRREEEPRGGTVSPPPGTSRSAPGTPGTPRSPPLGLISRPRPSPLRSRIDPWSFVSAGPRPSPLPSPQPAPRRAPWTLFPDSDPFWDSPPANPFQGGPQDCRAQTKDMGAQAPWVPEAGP
MAP3K5, sequence (Q99683 whole entry): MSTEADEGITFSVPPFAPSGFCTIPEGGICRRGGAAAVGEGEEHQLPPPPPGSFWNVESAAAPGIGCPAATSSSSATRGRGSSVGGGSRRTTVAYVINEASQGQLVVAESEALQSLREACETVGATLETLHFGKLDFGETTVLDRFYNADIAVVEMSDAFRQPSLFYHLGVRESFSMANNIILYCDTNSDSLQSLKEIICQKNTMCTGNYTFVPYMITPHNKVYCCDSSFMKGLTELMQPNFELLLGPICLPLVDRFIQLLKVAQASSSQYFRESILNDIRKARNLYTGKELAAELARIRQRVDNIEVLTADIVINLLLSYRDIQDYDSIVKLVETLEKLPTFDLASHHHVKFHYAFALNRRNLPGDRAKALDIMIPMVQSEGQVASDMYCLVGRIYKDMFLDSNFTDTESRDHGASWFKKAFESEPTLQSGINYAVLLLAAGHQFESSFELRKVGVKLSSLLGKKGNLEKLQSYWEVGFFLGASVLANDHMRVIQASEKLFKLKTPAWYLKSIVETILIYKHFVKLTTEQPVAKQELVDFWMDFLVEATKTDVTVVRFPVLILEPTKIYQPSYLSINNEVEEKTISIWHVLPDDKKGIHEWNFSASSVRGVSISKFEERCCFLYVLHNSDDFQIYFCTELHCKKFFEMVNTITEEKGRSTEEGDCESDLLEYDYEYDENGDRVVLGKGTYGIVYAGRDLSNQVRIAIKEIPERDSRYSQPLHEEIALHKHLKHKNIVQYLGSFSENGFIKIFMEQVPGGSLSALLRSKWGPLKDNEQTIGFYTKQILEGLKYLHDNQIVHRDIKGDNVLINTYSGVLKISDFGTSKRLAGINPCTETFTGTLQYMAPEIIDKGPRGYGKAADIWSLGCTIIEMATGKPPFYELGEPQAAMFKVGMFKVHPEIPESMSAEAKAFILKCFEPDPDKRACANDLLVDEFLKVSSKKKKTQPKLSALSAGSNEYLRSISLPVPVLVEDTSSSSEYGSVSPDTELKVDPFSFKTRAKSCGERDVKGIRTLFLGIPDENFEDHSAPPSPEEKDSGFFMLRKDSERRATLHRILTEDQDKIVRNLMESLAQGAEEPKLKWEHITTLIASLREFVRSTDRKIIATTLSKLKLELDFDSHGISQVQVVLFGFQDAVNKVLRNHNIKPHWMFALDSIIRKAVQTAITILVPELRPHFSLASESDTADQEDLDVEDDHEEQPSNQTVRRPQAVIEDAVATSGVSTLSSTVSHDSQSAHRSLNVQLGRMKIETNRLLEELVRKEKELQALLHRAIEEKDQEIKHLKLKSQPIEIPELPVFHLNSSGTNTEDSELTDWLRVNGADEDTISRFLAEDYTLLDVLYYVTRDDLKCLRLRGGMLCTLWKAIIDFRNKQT
MKNK1, sequence (Q9BUB5 whole entry): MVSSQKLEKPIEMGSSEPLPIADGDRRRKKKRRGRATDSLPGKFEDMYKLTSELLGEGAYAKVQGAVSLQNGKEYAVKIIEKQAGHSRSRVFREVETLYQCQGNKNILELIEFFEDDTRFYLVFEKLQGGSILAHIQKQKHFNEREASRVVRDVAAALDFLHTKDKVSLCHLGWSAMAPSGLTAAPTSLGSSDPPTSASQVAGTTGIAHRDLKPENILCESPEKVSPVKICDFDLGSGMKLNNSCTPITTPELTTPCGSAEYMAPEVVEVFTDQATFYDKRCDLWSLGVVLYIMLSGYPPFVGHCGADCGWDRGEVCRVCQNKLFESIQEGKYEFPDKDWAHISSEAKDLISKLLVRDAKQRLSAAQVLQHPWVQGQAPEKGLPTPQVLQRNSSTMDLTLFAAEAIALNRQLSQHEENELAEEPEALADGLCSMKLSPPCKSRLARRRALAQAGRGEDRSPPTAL
CAMK2A, sequence (Q9UQM7 whole entry): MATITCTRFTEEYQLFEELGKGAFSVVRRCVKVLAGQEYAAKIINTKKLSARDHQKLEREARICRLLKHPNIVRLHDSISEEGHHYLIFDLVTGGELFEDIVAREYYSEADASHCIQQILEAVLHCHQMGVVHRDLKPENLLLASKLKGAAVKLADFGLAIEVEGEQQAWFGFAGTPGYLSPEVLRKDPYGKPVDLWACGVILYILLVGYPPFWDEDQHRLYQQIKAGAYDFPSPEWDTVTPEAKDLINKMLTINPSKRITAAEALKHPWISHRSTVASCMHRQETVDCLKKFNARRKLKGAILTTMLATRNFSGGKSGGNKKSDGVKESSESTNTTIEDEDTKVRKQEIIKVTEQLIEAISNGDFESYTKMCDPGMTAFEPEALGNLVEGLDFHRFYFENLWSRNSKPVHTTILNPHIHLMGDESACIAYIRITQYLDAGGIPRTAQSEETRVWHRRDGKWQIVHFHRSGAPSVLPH

Row | Compound | IC50 (MAP3K11) | IC50 (MAP3K5) [nM] | IC50 (MARK4) | IC50 (NLK) | IC50 (CAMK2A) [nM] | IC50 (MKNK1) [nM] | IC50 (CHEK1) [nM] | IC50 (PIP4K2C) | IC50 (JAK2)
1 | CN(C)CC(O)COc1ccc(Nc2ncc([N+](=O)[O-])c(Nc3ccccc3O)n2)cc1.O=C(O)C(F)(F)F (stereo not drawn) [TCMDC-141399] | 1400 nM and 630 nM | > 20000 | 12000 nM and 7600 nM | > 20000 nM | > 20000 | > 20000 | – | – | –
2 | Cl.NCC1(c2nc(-c3ccc(Cl)c(O)c3)c(-c3ccncc3)[nH]2)CCCCC1 [TCMDC-141154] | – | > 20000 | > 20000 nM | – | > 20000 | > 20000 | > 20000 | > 20000 nM | > 20000 nM
3 | CN1CCN(c2ccc(Nc3ncc(C#N)c(Nc4ccccc4C(N)=O)n3)cc2)CC1.Cl [TCMDC-134116] | 89 nM | – | – | 1600 nM and 1500 nM | – | – | 220 | 970 nM and 1000 nM | 510 nM and 330 nM
